What was measured:
Format in all cases: in vivo
Sphaerotheca fuliginea = assay: Sphaerotheca test (cucumbers)/preventive; conditions: Table G1, 7 days after inoculation
Protocol: (§1) Solvent: 24.5 parts by weight of acetone • 24.5 parts by weight of dimethylacetamide Emulsifier: 1 part by weight of alkylaryl polyglycol ether To produce a suitable preparation of active compound, 1 part by weight of active compound is mixed with the stated amounts of solvent and emulsifier, and the concentrate is diluted with water to the desired concentration. To test for preventive activity, young plants are sprayed with the preparation of active compound at the stated rate of application. After the spray coating has dried on, the plants are inoculated with an aqueous spore suspension of Sphaerotheca fuliginea.

Puccinia triticina = assay: Puccinia triticina-test (wheat)/preventive; conditions: Table E1, 8 days after inoculation
Protocol: (§2) Solvent: 49 parts by weight of N,N-dimethylacetamide
(§3) Emulsifier: 1 part by weight of alkylaryl polyglycol ether
(§4) To produce a suitable preparation of active compound, 1 part by weight of active compound or active compound combination is mixed with the stated amounts of solvent and emulsifier, and the concentrate is diluted with water to the desired concentration.
(§5) To test for preventive activity, young plants are sprayed with the preparation of active compound or active compound combination at the stated rate of application.
After the spray coating has been dried, the plants are sprayed with a spore suspension of Puccinia triticina. The plants remain for 48 hours in an incubation cabinet at approximately 20° C. and a relative atmospheric humidity of approximately 100%.
(§6) The plants are placed in the greenhouse at a temperature of approximately 20° C. and a relative atmospheric humidity of approximately 80%.
(§7) The test is evaluated 8 days after the inoculation. 0% means an efficacy which corresponds to that of the untreated control, while an efficacy of 100% means that no disease is observed.

Alternaria solani = assay: Alternaria test (tomatoes)/preventive; conditions: 3 days after inoculation
Protocol: (§8) Solvent: 24.5 parts by weight of acetone • 24.5 parts by weight of dimethylacetamide
as §3
(§9) To produce a suitable preparation of active compound, 1 part by weight of active compound is mixed with the stated amounts of solvent and emulsifier, and the concentrate is diluted with water to the desired concentration.
(§10) To test for preventive activity, young plants are sprayed with the preparation of active compound at the stated rate of application. After the spray coating has dried on, the plants are inoculated with an aqueous spore suspension of Alternaria solani. The plants are then placed in an incubation cabinet at approximately 20° C. and a relative atmospheric humidity of 100%.
The test is evaluated 3 days after the inoculation. 0% means an efficacy which corresponds to that of the untreated control while an efficacy of 100% means that no disease is observed.

Venturia inaequalis = assay: Venturia test (apples)/preventive; conditions: Table I1, 10 days after inoculation
Protocol: as §1, with “application.” for “application. After the spray coating has dried on, the plants are inoculated with an aqueous spore suspension of Sphaerotheca fuliginea.”

Leptosphaeria nodorum = Leptosphaeria nodorum test (wheat)/preventive; conditions: Table C1, 8 days after inoculation
Protocol: Solvent: 49 parts by weight of N,N-dimethylacetamide Emulsifier: 1 part by weight of alkylaryl polyglycol ether To produce a suitable preparation of active compound, 1 part by weight of active compound or active compound combination is mixed with the stated amounts of solvent and emulsifier, and the concentrate is diluted with water to the desired concentration. To test for preventive activity, young plants are sprayed with the preparation of active compound or active compound combination at the stated rate of application. After the spray coating has been dried, the plants are sprayed with a spore suspension of Leptosphaeria nodorum.

Uromyces appendiculatus = assay: Uromyces test (beans)/preventive; conditions: 10 days after inoculation
Protocol: as §8, §3, §9
as §10, with “the causal agent of bean rust (Uromyces appendiculatus) and” for “Alternaria solani. The plants are”, “remain for 1 day” for “placed”
The plants are then placed in a greenhouse at approximately 21° C. and a relative atmospheric humidity of approximately 90%.
The test is evaluated 10 days after the inoculation. 0% means an efficacy which corresponds to that of the untreated control, while an efficacy of 100% means that no disease is observed.

Pyrenophora teres = assay: Pyrenophora teres-test (barley)/preventive; conditions: Table F1, 8 days after inoculation
Protocol: as §2, §3, §4, §5
After the spray coating has been dried, the plants are sprayed with a spore suspension of Pyrenophora teres. The plants remain for 48 hours in an incubation cabinet at approximately 20° C. and a relative atmospheric humidity of approximately 100%.
as §6, §7

Phakopsora pachyrhizi = assay: Phakopsora test (soybeans)/preventive; conditions: 7 days after inoculation
[1] = system: Blumeria graminis f.sp. hordei; assay: Blumeria test (barley)/preventive; conditions: Table B1, 7 days after inoculation
Protocol: Solvent: 49 parts by weight of N,N-dimethylacetamide Emulsifier: 1 part by weight of alkylaryl polyglycol ether To produce a suitable preparation of active compound, 1 part by weight of active compound or active compound combination is mixed with the stated amounts of solvent and emulsifier, and the concentrate is diluted with water to the desired concentration. To test for preventive activity, young plants are sprayed with the preparation of active compound or active compound combination at the stated rate of application. After the spray coating has been dried, the plants are dusted with spores of Blumeria graminis f.sp. hordei.

[2] = Phakopsora pachyrhizi, 168 h, Table D1, 1 ppm a.i., read-out: Efficacy in % found

## Cn1c(=O)c2sc3c(=O)n(C)c(=O)c3sc2c1=O [15.61, 2,6-dimethyl-1H,5H-[1,4]dithiino[2,3-c:5,6-c′]dipyrrole-1,3,5,7(2H,6H)-tetrone]
Sphaerotheca fuliginea; 25 ppm a.i.
  Efficacy in % found: 38%
Puccinia triticina; 800 ppm a.i.
  Efficacy in % found: 40%
Alternaria solani; Table A2, 50 ppm a.i.
  Efficacy in % found: 23%

## CON=C(C(=O)OC)c1ccccc1CON=C(C)c1cccc(C(F)(F)F)c1 [3.22, trifloxystrobin]
Puccinia triticina; 20 ppm a.i.
  Efficacy in % found: 60%
Venturia inaequalis; 0.5 ppm a.i.
  Efficacy in % found: 86%

## propineb [5.29]
Leptosphaeria nodorum; 400 ppm a.i.
  Efficacy in % found: 33%
Sphaerotheca fuliginea; 10 ppm a.i.
  Efficacy in % found: 29%
Puccinia triticina; 400 ppm a.i.
  Efficacy in % found: 30%
Venturia inaequalis; 5 ppm a.i.
  Efficacy in % found: 14%
Alternaria solani; Table A2, 20 ppm a.i.
  Efficacy in % found: 12%
Uromyces appendiculatus; Table H2, 20 ppm a.i.
  Efficacy in % found: 56%

## CO/N=C(/C1=NOCCO1)c1ccccc1Oc1ncnc(Oc2ccccc2Cl)c1F [3.12, fluoxastrobin]
Pyrenophora teres; 20 ppm a.i.
  Efficacy in % found: 13%

## O=C(NCCc1ncc(C(F)(F)F)cc1Cl)c1ccccc1C(F)(F)F [2.6, fluopyram]
Phakopsora pachyrhizi; Phakopsora pachyrhizi, 168 h, Table D1, 4 ppm a.i., read-out: Efficacy in % found
  pest or weed control at 4 ppm: 0%
Pyrenophora teres; 40 ppm a.i.
  Efficacy in % found: 94%

## Cn1cc(C(=O)Nc2ccc(F)cc2-c2ccc(Cl)c(Cl)c2)c(C(F)F)n1 [2.1, bixafen]
Phakopsora pachyrhizi; Table D1, 1 ppm a.i.
  Efficacy in % found: 0%
Pyrenophora teres; 80 ppm a.i.
  Efficacy in % found: 94%
Venturia inaequalis; 0.5 ppm a.i.
  Efficacy in % found: 0%
Alternaria solani; Table A1, 0.5 ppm a.i.
  Efficacy in % found: 43%

## CC(C)(C)C(O)(CCc1ccc(Cl)cc1)Cn1cncn1 (stereo not drawn) [1.47, tebuconazole]
Phakopsora pachyrhizi; [2]
  pest or weed control at 1 ppm: 58%
Sphaerotheca fuliginea; 2.5 ppm a.i.
  Efficacy in % found: 38%
Uromyces appendiculatus; Table H2, 2 ppm a.i.
  Efficacy in % found: 30%

## OC(Cc1ccccc1Cl)(Cn1nc[nH]c1=S)C1(Cl)CC1 (stereo not drawn) [1.41, prothioconazole]
Phakopsora pachyrhizi; Phakopsora pachyrhizi, 168 h, Table D2, 0.5 ppm a.i., read-out: Efficacy in % found
  pest or weed control at 0.5 ppm: 20%
Puccinia triticina; 80 ppm a.i.
  Efficacy in % found: 20%

## N#Cc1c(Cl)c(Cl)c(Cl)c(C#N)c1Cl [5.4, chlorothalonil]
Sphaerotheca fuliginea; 5 ppm a.i.
  Efficacy in % found: 19%
Puccinia triticina; 160 ppm a.i.
  Efficacy in % found: 20%
Venturia inaequalis; 20 ppm a.i.
  Efficacy in % found: 68%
Alternaria solani; Table A2, 20 ppm a.i.
  Efficacy in % found: 8%
Uromyces appendiculatus; Table H2, 20 ppm a.i.
  Efficacy in % found: 0%

## Fc1ccc([C@]2(Cn3cncn3)O[C@H]2c2ccccc2Cl)cc1 (racemic) [1.12, epoxiconazole]
Phakopsora pachyrhizi; Table D2, 0.5 ppm a.i.
  Efficacy in % found: 23%
Leptosphaeria nodorum; 40 ppm a.i.
  Efficacy in % found: 33%

## CC(C1CC1)C(O)(Cn1cncn1)c1ccc(Cl)cc1 (stereo not drawn) [1.5, cyproconazole]
Phakopsora pachyrhizi; [2]
  pest or weed control at 1 ppm: 63%
Venturia inaequalis; 2 ppm a.i.
  Efficacy in % found: 40%
Uromyces appendiculatus; Table H3, 1 ppm a.i.
  Efficacy in % found: 57%

## CC(C)c1ccc(Cl)cc1CN(C(=O)c1c(C(F)F)nn(C)c1F)C1CC1 [15.151, N-(5-chloro-2-isopropylbenzyl)-N-cyclopropyl-3-(difluoromethyl)-5-fluoro-1-methyl-1H-pyrazole-4-carboxamide]
Pyrenophora teres; 20 ppm a.i.
  Efficacy in % found: 88%
Alternaria solani; Table A1, 0.25 ppm a.i.
  Efficacy in % found: 39%
[1]; 20 ppm a.i.
  Efficacy in % found: 0%

## Cn1cc(C(=O)Nc2ccccc2-c2cc(F)c(F)c(F)c2)c(C(F)F)n1 [2.8, fluxapyroxad]
Phakopsora pachyrhizi; Table D1, 1 ppm a.i.
  Efficacy in % found: 0%
Pyrenophora teres; 40 ppm a.i.
  Efficacy in % found: 94%
Uromyces appendiculatus; Table H1, 0.25 ppm a.i.
  Efficacy in % found: 0%

## COC(=O)N(OC)c1ccccc1COc1ccn(-c2ccc(Cl)cc2)n1 [3.17, pyraclostrobin]
Puccinia triticina; 20 ppm a.i.
  Efficacy in % found: 20%

## CC1(C)CCC(Cc2ccc(Cl)cc2)C1(O)Cn1cncn1 (stereo not drawn) [1.30, metconazole]
Puccinia triticina; 40 ppm a.i.
  Efficacy in % found: 70%

## CO/C=C(/C(=O)OC)c1ccccc1Oc1cc(Oc2ccccc2C#N)ncn1 [3.3, azoxystrobin]
Phakopsora pachyrhizi; Table D1, 0.25 ppm a.i.
  Efficacy in % found: 15%
Pyrenophora teres; 20 ppm a.i.
  Efficacy in % found: 75%
Venturia inaequalis; 0.5 ppm a.i.
  Efficacy in % found: 88%
Uromyces appendiculatus; Table H3, 0.125 ppm a.i.
  Efficacy in % found: 0%
[1]; 20 ppm a.i.
  Efficacy in % found: 10%

## CO/C=C(/C(=O)OC)c1ccccc1COc1cccc(C(F)(F)F)n1 [3.16, picoxystrobin]
Pyrenophora teres; 40 ppm a.i.
  Efficacy in % found: 75%
Uromyces appendiculatus; Table H1, 2.5 ppm a.i.
  Efficacy in % found: 65%
[1]; 40 ppm a.i.
  Efficacy in % found: 30%

## CC1CC(C)(C)c2cccc(NC(=O)c3cn(C)nc3C(F)F)c21 (stereo not drawn) [2.32, 3-(difluoromethyl)-1-methyl-N-(1,1,3-trimethyl-2,3-dihydro-1H-inden-4-yl)-1H-pyrazole-4-carboxamide]
[1]; 80 ppm a.i.
  Efficacy in % found: 30%

## CC(C)CC(C)c1sccc1NC(=O)c1cn(C)nc1C(F)(F)F (stereo not drawn) [2.21, penthiopyrad]
Pyrenophora teres; 80 ppm a.i.
  Efficacy in % found: 63%
[1]; 80 ppm a.i.
  Efficacy in % found: 30%

## Cn1cc(C(=O)Nc2cccc3c2[C@@H]2CC[C@H]3C2=C(Cl)Cl)c(C(F)F)n1 (racemic) [2.29, benzovindiflupyr]
Phakopsora pachyrhizi; Table D1, 0.5 ppm a.i.
  Efficacy in % found: 8%
Pyrenophora teres; 40 ppm a.i.
  Efficacy in % found: 0%
